Each structure is given as a SMILES string.

The target of the assay is T1, L type amino acid transporter 1 (LAT1) (Homo sapiens, UniProt Q01650).
T1 construct: gene SLC7A5; with 4F2 heavy chain (4F2hc)
The assay can be described thus: inhibition of […] L-leucine uptake ([…] min, […] °C) in MDA-MB-231 cells (endogenous LAT1); […] in T-47D cells. The class given is cell-based.

T1 sequence (Q01650 whole entry): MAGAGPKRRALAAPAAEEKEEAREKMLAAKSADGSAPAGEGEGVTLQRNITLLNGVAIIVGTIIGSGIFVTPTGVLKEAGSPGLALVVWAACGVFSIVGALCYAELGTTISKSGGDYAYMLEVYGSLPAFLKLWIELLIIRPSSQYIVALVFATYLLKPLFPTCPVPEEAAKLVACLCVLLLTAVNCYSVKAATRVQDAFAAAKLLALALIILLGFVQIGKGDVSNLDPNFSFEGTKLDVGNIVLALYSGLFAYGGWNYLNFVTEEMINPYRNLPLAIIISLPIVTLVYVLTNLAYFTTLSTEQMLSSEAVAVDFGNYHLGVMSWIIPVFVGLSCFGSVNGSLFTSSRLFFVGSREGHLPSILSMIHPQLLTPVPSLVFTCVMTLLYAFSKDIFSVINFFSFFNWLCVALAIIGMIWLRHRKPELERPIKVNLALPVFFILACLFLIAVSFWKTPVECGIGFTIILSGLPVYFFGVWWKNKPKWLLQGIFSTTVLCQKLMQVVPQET
T1 sequence (P08195 103-630 partner): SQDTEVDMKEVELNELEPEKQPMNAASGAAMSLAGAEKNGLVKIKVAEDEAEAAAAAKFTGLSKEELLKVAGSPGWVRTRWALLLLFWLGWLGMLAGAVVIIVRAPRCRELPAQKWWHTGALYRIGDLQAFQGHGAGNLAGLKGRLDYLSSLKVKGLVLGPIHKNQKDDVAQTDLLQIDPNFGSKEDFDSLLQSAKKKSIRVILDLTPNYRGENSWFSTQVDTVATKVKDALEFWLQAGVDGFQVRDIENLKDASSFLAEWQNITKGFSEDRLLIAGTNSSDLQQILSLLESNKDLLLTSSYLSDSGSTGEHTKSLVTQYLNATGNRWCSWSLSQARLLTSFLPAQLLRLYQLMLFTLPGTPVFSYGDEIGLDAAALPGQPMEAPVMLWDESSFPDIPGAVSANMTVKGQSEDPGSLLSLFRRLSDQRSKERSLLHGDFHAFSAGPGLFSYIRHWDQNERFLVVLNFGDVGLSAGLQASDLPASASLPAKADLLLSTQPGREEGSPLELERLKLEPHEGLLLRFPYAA

For the compound `Nc1cc(COc2c(Cl)cc(C[C@H](N)C(=O)O)cc2Cl)c2oc(-c3ccccc3)nc2c1` [JPH203, (S)-2-amino-3-(4-((5-amino-2-phenylbenzo[d]oxazol-7-yl)methoxy)-3,5-dichlorophenyl)-propanoic acid], the IC50 (as a rule, the concentration at which inhibition is half-maximal) is 60 ± 20 nM.

The values are drawn from PMC8770514, “Induction of CTH expression in response to amino acid starvation confers resistance to anti-LAT1 therapy in MDA-MB-231 cells” (Scientific Reports, 2022).
